Data on one compound can be found in patent publication EP4813403A1, “USE OF GLP-1R/GIPR DOUBLE-TARGET AGONIST IN PREPARING ANIMAL DRUG” (Hangzhou Zhongmeihuadong Pharmaceutical Co., Ltd., priority 2023, dated 2025).

For experiment [1], the target named is T1, dog GLP-1R (Canis lupus familiaris, UniProt A0A8I3NUR9).
T1 construct: expressed in transfected cells
T1 sequence (A0A8I3NUR9 1-464): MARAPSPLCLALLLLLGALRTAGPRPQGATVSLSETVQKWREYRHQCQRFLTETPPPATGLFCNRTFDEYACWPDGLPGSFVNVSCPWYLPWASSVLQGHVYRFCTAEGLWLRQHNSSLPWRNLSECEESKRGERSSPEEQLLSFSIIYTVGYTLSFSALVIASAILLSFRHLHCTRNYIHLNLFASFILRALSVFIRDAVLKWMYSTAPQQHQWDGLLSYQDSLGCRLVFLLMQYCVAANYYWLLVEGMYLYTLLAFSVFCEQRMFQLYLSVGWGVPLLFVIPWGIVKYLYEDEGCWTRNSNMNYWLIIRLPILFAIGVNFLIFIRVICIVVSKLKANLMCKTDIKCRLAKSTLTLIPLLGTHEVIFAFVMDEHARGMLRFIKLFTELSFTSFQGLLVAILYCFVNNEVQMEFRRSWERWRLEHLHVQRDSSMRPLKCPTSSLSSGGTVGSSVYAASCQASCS
Kind of experiment: Agonistic activity on GLP-1R of different species (LANCE Ultra cAMP assay): dog. It counts as cell-based. Conditions: ratio of EC50 value of other species to human EC50 value. The method, then:
The in vitro agonistic activity of the compound of the present invention on GLP-1R was measured in cells stably expressing human, dog, mouse, rat, rabbit, and monkey GLP-1R (human GLP-1R-HEK, dog GLP-1R-HEK, mouse GLP-1R-HEK, rat GLP-1R- in HEK, rabbit GLP-1R-CHO, monkey GLP-1R-HEK cells). Human GLP-1R-HEK, dog GLP-1R-HEK, mouse GLP-1R-HEK, rat GLP-1R-HEK, rabbit GLP-1R-CHO, and monkey GLP-1R-HEK cells were resuspended in 1×Casein Stimulation Buffer (HBSS, 5 mM HEPES, 0.5 mM IBMX, 0.1% casein, pH7.4), and seeded into a 384-well cell culture plate at 9 µL/well (cell numbers being 1000, 1000, 1000, 1500, 1000, 1000 cells/well, respectively). 1 µL of 1×Casein Stimulation Buffer containing 10× compound was added to the above-mentioned 384-well cell culture plate. The plate was incubated at 37 °C for 30 minutes. After the incubation was completed, 5 µL of Eu-cAMP working solution and 5 µL of Ulight^TM-cAMP working solution were added sequentially, centrifuged and then incubated at room temperature for 1 hour. The readings at 665 nm and 620 nm were determined with a 330 nm excitation light on a microplate reader. The 665 nm/620 nm reading ratio was calculated. […] GraphPad was used to perform nonlinear regression according to the response percentage and the concentration of the compound added to obtain the EC50 value for each compound.

Experiment [2] has as its target T2, mouse GIPR (Mus musculus, UniProt Q0P543).
T2 construct: expressed in transfected cells; host or cells: CHO-K1 (transient)
T2 sequence (Q0P543 19-460): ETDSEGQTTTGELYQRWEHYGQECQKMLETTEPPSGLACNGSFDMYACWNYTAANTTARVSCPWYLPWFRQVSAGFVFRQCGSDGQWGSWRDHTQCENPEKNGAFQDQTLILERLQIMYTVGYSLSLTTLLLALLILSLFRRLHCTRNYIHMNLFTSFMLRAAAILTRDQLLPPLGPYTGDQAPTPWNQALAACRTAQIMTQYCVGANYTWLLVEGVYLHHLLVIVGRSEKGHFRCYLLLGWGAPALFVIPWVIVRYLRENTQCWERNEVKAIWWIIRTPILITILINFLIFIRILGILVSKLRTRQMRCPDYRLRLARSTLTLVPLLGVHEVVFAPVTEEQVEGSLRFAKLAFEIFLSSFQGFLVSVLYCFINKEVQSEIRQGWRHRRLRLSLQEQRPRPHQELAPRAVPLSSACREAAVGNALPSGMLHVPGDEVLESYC
Nature of the experiment: Agonistic activity on GIPR of different species (LANCE Ultra cAMP assay): mouse. It counts as cell-based. Conditions: ratio of EC50 value of other species to human EC50 value. (Time-resolved FRET reads energy transfer from a long-lived donor to a nearby acceptor.)

In the case of `CC[C@H](C)[C@H](NC(=O)C(C)(C)NC(=O)[C@H](Cc1ccc(O)cc1)NC(=O)[C@H](CC(=O)O)NC(=O)[C@H](CO)NC(=O)[C@@H](NC(=O)C(C)(Cc1ccccc1)NC(=O)[C@@H](NC(=O)CNC(=O)[C@H](CCC(=O)O)NC(=O)C(C)(C)NC(=O)[C@@H](N)Cc1ccc(O)cc1)[C@@H](C)O)[C@@H](C)O)C(=O)NC(C)(C)C(=O)N[C@@H](CC(C)C)C(=O)N[C@@H](CC(=O)O)C(=O)N[C@@H](CCCCN)C(=O)N[C@@H](CCC(N)=O)C(=O)N[C@@H](C)C(=O)N[C@@H](CCC(N)=O)C(=O)N[C@@H](C)C(=O)N[C@@H](CCC(=O)O)C(=O)N[C@@H](Cc1ccccc1)C(=O)N[C@H](C(=O)N[C@@H](CCCCNC(=O)COCCOCCNC(=O)COCCOCCNC(=O)COCCOCCNC(=O)CC[C@H](NC(=O)CCCCCCCCCCCCCCCCCCCCC(=O)O)C(=O)O)C(=O)N[C@@H](Cc1c[nH]c2ccccc12)C(=O)N[C@@H](CC(C)C)C(=O)N[C@@H](CC(C)C)C(=O)N[C@@H](CCCCN)C(=O)NCC(=O)NCC(=O)N1CCC[C@H]1C(=O)N[C@@H](CO)C(=O)N[C@@H](CO)C(=O)NCC(=O)N[C@@H](C)C(=O)N1CCC[C@H]1C(=O)N1CCC[C@H]1C(=O)N1CCC[C@H]1C(=O)N[C@@H](CO)C(=O)N[C@@H](CCCCN)C(N)=O)C(C)C` (some centres unmarked) [Compound P016], in experiment [1], the “GLP-1R EC50 ratio” value amounted to 4.52. The “GIPR EC50 ratio” value in experiment [2] amounted to 12.49.
